We go through two compounds from publication PMC10534891, “Evaluation of 4-Aminoquinoline Hydrazone Analogues as Potential Leads for Drug-Resistant Malaria” (Molecules, 2023).

SMILES strings stand for the structures. Read-outs that look alike come from different tables or passages of the source.

Data set [1] deals with P. falciparum K1 strain. Description: P. falciparum K1 asexual growth inhibition, 48 h, SYBR Green-based plate reader assay. The format is cell-based, Plasmodium falciparum. Particulars: Plasmodium falciparum, read-out: Plasmodium IC50 ± SE. The procedure: Sixteen 4-amino-6-methoxy-quinoline hydrazone compounds (see Figure S1, Supplementary Materials for full structures), with methyl and phenyl substituents at the 2-position (R = Me, Ph) and various substituents at R’ (Table 1), were tested for their antimalarial activities. A 1% parasitised culture at the trophozoite stage was treated with the compounds for 48 h at concentrations of 0.003050–200 µM (four-fold serial dilution) against the P. falciparum K1 strain, and the growth was measured using the SYBR Green-based plate reader assay.
(§1) In total, 1% of infected RBCs at the ring or trophozoites stage was exposed to nine dilutions (four-fold serial dilution) of compounds from 50 mM stock solutions in DMSO. A total of 100 µL of culture volume was added in 96-well plates with 100 µL drug dilutions. Plates were either incubated for 48 h or 72 h at 37 °C, 5% CO2, 5% O2 in N2. Following the incubation, 150 µL of the medium was carefully removed and 150 µL of the 5× SYBR Green solution (prepared by adding 2 µL of 10,000× SYBR Green in 4 mL of PBS) was added to each well. Plates were kept in the dark for 45 min. Fluorescence intensity was measured using a microplate reader (Genius Tecan) with an excitation of 485 nm and an emission of 535 nm.
(§2) IC50 values were determined using Graph Pad Prism 5.0. Values were calculated using non-linear regression by using log-transformed drug concentration plotted against dose–response. Parasitaemia was calculated and normalised relative to the response on the controls (cultures without drug).

Data set [2] has as its system P. falciparum K1 strain. Particulars: read-out: IC50 (published data); published value for comparison; cited from earlier work.
The subject of another data set is MDBK cells. Description: MTT cytotoxicity assay, MDBK. It is filed as cell-based, bovine. The settings on record: MDBK IC50 (5 days) / K1 72 h IC50; IC50 = 25 μM assumed for compounds 5 and 13. As to the method: (§3) An MTT (3-(4,5-dimethylthiazol-2-yl)-2,5-diphenyl tetrazolium bromide) assay was performed to investigate the toxicity of the 4-aminoquinoline hydrazone compounds. HepG2 and MDBK cells were incubated with a two-fold serial dilution at dose ranges from 0.39 to 25 µM for 5 days.
(§4) Human hepatoma (HepG2) and the Madin–Darby bovine kidney (MDBK) cell lines were purchased from American Type Culture Collection (ATCC), USA. The MDBK cell line was cultured with Dulbecco’s Modified Eagle’s Medium (DMEM) containing 4.5 g/L (+)-D-glucose and L-glutamine, while the HepG2 cell line was cultured with RPMI 1640 containing 2 mM L-glutamine and HEPES. The culture medium was supplemented with 10% Fetal Bovine Serum (FBS) and 1% penicillin. Cells were maintained in the presence of 5% CO2 atmosphere at 37 °C. The assay was carried out on a 96-well plate, with each well containing 4 × 10^3 cells. Plates were firstly incubated for 24 h at 37 °C to ensure cell adherence. The cells were then treated with 100 µL of the drug solution prepared at various concentrations and further incubated for 5 days. After the incubation period, 50 µL of the MTT (3-(4,5-dimethylthiazol-2-yl)-2,5-diphenyltetrazolium bromide, Sigma, UK) solution was added to each well and incubated for a further 3 h. The MTT solution and medium were aspirated, 150 µL of DMSO was added to each well, and the results were read on the Ascent plate reader.
(Tetrazolium dyes change colour on reduction, which living cells bring about.)

The nature of data set [3]: MTT cytotoxicity assay, MDBK. The settings on record: bovine, MDBK cells; MTT, 5 days; read-out: Cell Toxicity IC50 ± SE MDBK. The format is cell-based, bovine. As to the method:
as §3, §4

The next data set concerns HepG2 cells. The data set can be described thus: MTT cytotoxicity assay, HepG2. The format is cell-based, Human. Particulars: HepG2 IC50 (5 days) / K1 72 h IC50; IC50 = 25 μM assumed for compound 13. The procedure: as §3, §4
Data set [4] can be described thus: MTT cytotoxicity assay, HepG2. Particulars: human, HepG2 cells; MTT, 5 days; read-out: Cell Toxicity IC50 ± SE HepG2. The format is cell-based, Human. As to the method:
as §3, §4

Data set [5] deals with P. falciparum K1 strain. The data set can be described thus: P. falciparum K1 dose-response, 72 h, SYBR Green-based plate reader assay. It is filed as cell-based. Particulars: Plasmodium falciparum, ring stage, 72 h incubation, read-out: Plasmodium IC50 ± SE. The procedure:
We set up drug efficacy assays for the eight lead compounds 1–5, 12–14 (selected based on the best antimalarial activities) (Table 1), with 72 h incubation on parasitised culture. A dose–response experiment was initiated on 1% synchronous culture at the ring stages of the P. falciparum K1 strain. The selected compounds were tested at three-fold serial dilutions from 6.86 to 5000 nM. […] The selectivity indices (IC50 human cells/IC50 parasites) were calculated based on the 72 h exposure studies and are presented in Table 2.
as §1, §2

Data set [6] concerns P. falciparum K1 cultures. The data set can be described thus: Time-course assay, SYBR Green flow cytometer method. The format is cell-based, Plasmodium falciparum. The settings on record: IC50 doses, 24, 48, 72 h. The procedure:
A panel of compounds were selected based on activity and progressed in the time-course assay to define the activity timelines of the compounds. The assay was performed on 1% unsynchronised P. falciparum K1 cultures treated with previously determined IC50 (Table 1) doses of the lead compounds for 24, 48, and 72 h. […] It was also observed that the activity of the compounds became more pronounced as the time progressed up until 72 h of exposure.
The time-course assay was used to define the activity timelines of the 4-aminoquinoline hydrazone compounds. Parasite growth of K1 strain P. falciparum in the presence of 4-aminoquinoline hydrazone compounds was assessed on asynchronous culture. The growth impairment of K1 culture was initiated at 1% parasitaemia for 24, 48, and 72 h. The assay was analysed by flow cytometry as described below.
Following drug efficacy experiments, 100 µL from the control and drug-treated samples on a 96-well plate were transferred to a micro-centrifuge tube containing 1 mL of PBS. The samples were centrifuged at 1200 rpm for 2 min. […] The pellet was re-suspended in PBS (1 mL) and parasitaemia was determined by SYBR Green fluorescence using the FITC channel of the BD FACs Verse flow cytometer system (Blue laser, excitation laser line 488 nM Exmax 494/EMmax 520 nM) and cell size (forward scatter, FSC-A). […]
(In general: In flow cytometry, cells or beads pass a laser one at a time.)

In the case of `CCN(CC)CCCC(C)Nc1ccnc2cc(Cl)ccc12` (stereo not drawn) [Chloroquine, reference compound], the half-inhibitory concentration (IC50) (commonly the concentration needed to halve the response being measured) with P. falciparum K1 strain [1] (K1, 48 h) was 199 ± 40 nM; with P. falciparum K1 strain [2], 255 ± 49 nM.

`COc1ccc2nc(C)cc(N/N=C/c3cccnc3)c2c1` [Compound 3]: the 50% inhibitory concentration (IC50) in the data set on P. falciparum K1 strain [1] (K1 strain, trophozoite stage, 48 h incubation) is 3290 ± 1600 nM; in the data set on P. falciparum K1 strain [5], 175 ± 40 nM. Moreover, in the data set on MDBK cells, the “Selectivity Indices (MDBK)” value is listed as 42. Also, the IC50 at 5 days in data set [3] came out at 7340 ± 7600 nM; in data set [4], 3000 ± 270 nM. Further, the “Selectivity Indices (HepG2)” value in the data set on HepG2 cells is reported as 17. The “Onset of activity in time-course” value in data set [6] is recorded as “delayed activity”.
